Values after ≈ are worked out from the molar mass of the structure shown. Residues, ends and D or L forms follow the SMILES beside them.
Columns and labels:
[1] = tested on: Bacillus subtilis (ATCC 6633); assay: microbe, parasite or virus in culture; format: cell-based; conditions: Bacillus subtilis (ATCC 6633); averages of three repeats; read-out: Minimum inhibitory concentration (MIC)
Method: (§1) Antibacterial assay against various Gram-positive and Gram-negative strains of bacteria was performed by the serial two-fold dilution method according to the previously reported procedure, [36]. The antibacterial assays were repeated thrice and the averages of these MIC values were reported.

[2] = tested on: Escherichia coli (ATCC 25922); assay: microbe, parasite or virus in culture; format: cell-based; conditions: Escherichia coli (ATCC 25922); averages of three repeats; read-out: Minimum inhibitory concentration (MIC)
Method: as §1

[3] = tested on: Escherichia coli (ATCC 9637); assay: microbe, parasite or virus in culture; format: cell-based; conditions: Escherichia coli (ATCC 9637); averages of three repeats; read-out: Minimum inhibitory concentration (MIC)
Method: as §1

[4] = tested on: Klebsiella pneumoniae (ATCC 27736); assay: microbe, parasite or virus in culture; format: cell-based; conditions: Klebsiella pneumoniae (ATCC 27736); averages of three repeats; read-out: Minimum inhibitory concentration (MIC)
Method: as §1

[5] = tested on: Pseudomonas aeruginosa (ATCC BAA-427); assay: microbe, parasite or virus in culture; format: cell-based; conditions: Pseudomonas aeruginosa (ATCC BAA-427); averages of three repeats; read-out: Minimum inhibitory concentration (MIC)
Method: as §1

[6] = tested on: Staphylococcus aureus (ATCC 25923); assay: microbe, parasite or virus in culture; format: cell-based; conditions: Staphylococcus aureus (ATCC 25923); averages of three repeats; read-out: Minimum inhibitory concentration (MIC)
Method: as §1

[7] = tested on: Staphylococcus aureus (ATCC 29213); assay: microbe, parasite or virus in culture; format: cell-based; conditions: Staphylococcus aureus (ATCC 29213); averages of three repeats; read-out: Minimum inhibitory concentration (MIC)
Method: as §1

[8] = tested on: Staphylococcus aureus (ATCC 33592) Methicillin resistant Genatmicin resistant; assay: microbe, parasite or virus in culture; format: cell-based; conditions: Staphylococcus aureus (ATCC 33592), methicillin and gentamicin resistant; averages of three repeats; read-out: Minimum inhibitory concentration (MIC)
Method: as §1

[9] = tested on: Staphylococcus aureus (ATCC 700698 MRSA); assay: microbe, parasite or virus in culture; format: cell-based; conditions: Staphylococcus aureus (ATCC 700698 MRSA); averages of three repeats; read-out: Minimum inhibitory concentration (MIC)
Method: as §1

[10] = tested on: Staphylococcus aureus (ATCC 700699 MRSA); assay: microbe, parasite or virus in culture; format: cell-based; conditions: Staphylococcus aureus (ATCC 700699 MRSA); averages of three repeats; read-out: Minimum inhibitory concentration (MIC)
Method: as §1

[11] = tested on: Staphylococcus aureus (BAA-44)MDR; assay: microbe, parasite or virus in culture; format: cell-based; conditions: Staphylococcus aureus (BAA-44) MDR; averages of three repeats; read-out: Minimum inhibitory concentration (MIC)
Method: as §1

[12] = tested on: Candida albicans (ATCC 10231); assay: microbe, parasite or virus in culture; format: cell-based; conditions: Candida albicans (ATCC 10231); NCCLS micro broth dilution, 35 °C, 48 h, absorbance 492 nm; read-out: Minimum inhibitory concentration (MIC)
Method: (§2) The anti- fungal activity of peptides was performed according to the standard micro broth dilution technique as per NCCLS guidelines. These plates were incubated in a moist chamber at 35 °C, and an absorbance at 492 nm was recorded on a VersaMax microplate reader after 48 h for C. albicans ATCC 10231 and C. parapsilosis ATCC 22019 and 72 h for C. neoformans.

[13] = tested on: Candida parapsilosis (ATCC 22019); assay: microbe, parasite or virus in culture; format: cell-based; conditions: Candida parapsilosis (ATCC 22019); NCCLS micro broth dilution, 35 °C, 48 h, absorbance 492 nm; read-out: Minimum inhibitory concentration (MIC)
Method: as §2

[14] = tested on: Cryptococcus neoformans; assay: microbe, parasite or virus in culture; format: cell-based; conditions: Cryptococcus neoformans; NCCLS micro broth dilution, 35 °C, 72 h, absorbance 492 nm; read-out: Minimum inhibitory concentration (MIC)
Method: as §2

[15] = tested on: Sporothrix schenckii (Patient isolates); assay: microbe, parasite or virus in culture; format: cell-based; conditions: Sporothrix schenckii (patient isolates); NCCLS micro broth dilution, 35 °C; read-out: Minimum inhibitory concentration (MIC)
[16] = tested on: E. coli (ATCC 25922); format: cell-based, Escherichia coli; conditions: E. coli (ATCC 25922)
Method: (§3) E. coli ATCC25922 was grown to 10^6 CFU/ml in fresh MH broth with various divalent and monovalent salts at their physiological concentrations. Serial dilutions of chrysophsin-1 and its variants prepared with the same MH broth were added to the E. coli ATCC 25922 suspensions. The bacteria were incubated at 37 °C in a shaking incubator for 18 h and the MIC values of individual peptides against E. coli ATCC 25922 were determined. Thermal tolerance of Chrysophsin-1 and its variants was checked by incubating the peptides at 4 °C, 60 °C and 90 °C for 1 h prior to MIC determination. The antibacterial activity in presence of serum was carried out by adding a final concentration of 10% fetal bovine serum in the assay diluents containing 0.4% BSA, 0.02% glacial acetic acid. The subsequent steps in both the experiments were consistent with the MIC determination method.

[17] = tested on: E. coli ATCC 25922; format: cell-based, Escherichia coli; conditions: E. coli ATCC 25922
Method: as §3

[18] = tested on: S. aureus (ATCC 25923); format: cell-based, Staphylococcus aureus; conditions: S. aureus (ATCC 25923)
Method: as §3

[19] = tested on: E. coli ATCC 25922; assay: Synergy with conventional antibiotics, checkerboard titration; format: cell-based, Escherichia coli
Method: The checkerboard titration method was followed to check the synergy of peptides with other antibiotics. First, 2-fold serial dilutions of the antibiotics and antimicrobial peptides were prepared. Subsequently, 50 μl each of different concentrations of antibiotics and of antimicrobial peptides was mixed and added into 100 μl of log phase bacteria culture in a 96-well plate. The plates were then incubated at 37 °C for 24 h. The fractional inhibitory concentration (FIC) index (FICI) was calculated as follows[39]: FICI=(MICofdrugAincombination)/(MICofdrugAalone)+(MICofdrugBincombination)/(MICofdrugB): FICI < 0.5 is considered to indicate synergy; 0.5 < FICI < 1.0 is considered additive; 1.0 < FICI < 4.0 is considered indifferent; and FICI > 4.0 is considered antagonism.

[20] = peptide incubated 1 h at 4 °C prior to MIC determination
[21] = peptide incubated 1 h at 60 °C prior to MIC determination
[22] = peptide incubated 1 h at 90 °C prior to MIC determination

CC[C@H](C)[C@H](NC(=O)[C@H](C)NC(=O)[C@H](CCCCN)NC(=O)CNC(=O)[C@H](C)NC(=O)[C@H](Cc1c[nH]cn1)NC(=O)[C@@H](NC(=O)[C@H](C)NC(=O)CNC(=O)[C@H](CCCCN)NC(=O)[C@@H](NC(=O)[C@H](CC(C)C)NC(=O)[C@H](Cc1c[nH]c2ccccc12)NC(=O)CNC(=O)[C@H](Cc1ccccc1)NC(=O)[C@@H](N)Cc1ccccc1)[C@@H](C)CC)[C@@H](C)CC)C(=O)N[C@@H](Cc1c[nH]cn1)C(=O)NCC(=O)N[C@@H](CC(C)C)C(=O)N[C@H](C(=O)N[C@@H](Cc1c[nH]cn1)C(=O)N[C@@H](CCCNC(=N)N)C(=O)N[C@@H](CCCNC(=N)N)C(=O)N[C@@H](CCCNC(=N)N)C(=O)N[C@@H](Cc1c[nH]cn1)C(N)=O)[C@@H](C)CC [Chr-1, reference compound] (H-FFGWLIKGAIHAGKAIHGLIHRRRH-NH2; N-terminus assumed)
MIC [1]: 6 µM (≈ 17.3 µg/mL)
MIC [2]: 3 µM (≈ 8.67 µg/mL)
MIC [3]: 3.4 µM (≈ 9.83 µg/mL)
MIC [4]: 3 µM (≈ 8.67 µg/mL)
MIC [5]: 6.8 µM (≈ 19.7 µg/mL)
MIC [6]: 3 µM (≈ 8.67 µg/mL)
MIC [7]: 1.6 µM (≈ 4.63 µg/mL)
MIC [8]: 1.6 µM (≈ 4.63 µg/mL)
MIC [9]: 3 µM (≈ 8.67 µg/mL)
MIC [10]: 1.6 µM (≈ 4.63 µg/mL)
MIC [11]: 1.6 µM (≈ 4.63 µg/mL)
MIC [12]: 6.8 µM (≈ 19.7 µg/mL)
MIC [13]: 3 µM (≈ 8.67 µg/mL)
MIC [14]: 3 µM (≈ 8.67 µg/mL)
MIC [15]: 13.6 µM (≈ 39.3 µg/mL)
Antibacterial activity (MIC) after incubating peptide at 4 °C [16, 20]: 3 µM
Antibacterial activity (MIC) after incubating peptide at 60 °C [16, 21]: 8.3 µM
Antibacterial activity (MIC) after incubating peptide at 90 °C [16, 22]: 8.6 µM
Antibacterial activity (MIC) in the presence of 10% FBS ([17]; 10% fetal bovine serum in assay diluent with 0.4% BSA, 0.02% glacial acetic acid): 17.2 µM
Antibacterial activity (MIC) in the presence of FeCl3 ([17]; FeCl3 4 μM in MH broth, 37 °C, 18 h): 4.3 µM
Antibacterial activity (MIC) in the presence of KCl ([17]; KCl 4.5 mM in MH broth, 37 °C, 18 h): 4.3 µM
Antibacterial activity (MIC) in the presence of MgCl2 ([17]; MgCl2 1 mM in MH broth, 37 °C, 18 h): 8.6 µM
Antibacterial activity (MIC) in the presence of NH4Cl ([17]; NH4Cl 6 μM in MH broth, 37 °C, 18 h): 4.3 µM
Antibacterial activity (MIC) in the presence of NaCl ([17]; NaCl 150 mM in MH broth, 37 °C, 18 h): 8.3 µM
Antibacterial activity (MIC) in the presence of ZnCl2 ([17]; ZnCl2 8 μM in MH broth, 37 °C, 18 h): 4.3 µM
Antibacterial activity (MIC) after incubating peptide at 4 °C [18, 20]: 3 µM
Antibacterial activity (MIC) after incubating peptide at 60 °C [18, 21]: 12.6 µM
Antibacterial activity (MIC) after incubating peptide at 90 °C [18, 22]: 16.6 µM
interaction of peptide with chloramphenicol (by FICI) [19]: synergy (FICI < 0.5 is considered to indicate synergy)

From PMC5469811, “Identification of GXXXXG motif in Chrysophsin-1 and its implication in the design of analogs with cell-selective antimicrobial and anti-endotoxin activities” (Scientific Reports, 2017)
